Data on 13 compounds can be found in ChEMBL document CHEMBL1201862, “PubChem BioAssay data set” (2004).

Among the test systems are A498; ACHN; EKVX; HCT-116; HCT-15; IGROV-1; K562; LOX IMVI; OVCAR-4; OVCAR-8; RXF 393; SF-539; SK-MEL-28; SK-MEL-2; SK-OV-3; SNB-75; UACC-62; HL-60.
Common to all, as to assay: NCI-60 cell line screen, 48 h

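48-hour exposure; five concentrations; linearly interpolated endpoints. GI50 = concentration required for 50% inhibition of growth.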 Activity calls are given as the source filed them. Cut-off read from the data, not from the text of the source: active = GI50 up to about 1.1 µM and inactive = higher.

As to `Cc1c(C(=O)CC(=O)C(=O)Nc2cc(Cl)ccc2Cl)[n+]([O-])c2ccccc2[n+]1[O-]`, the GI50 in the experiment with A498 was > 100 µM (inactive); in the experiment with ACHN, > 100 µM (inactive); with EKVX it was 37.8 µM (inactive); in the experiment on HCT-116 it was 35.4 µM (inactive); with HCT-15 it was 29 µM; in the experiment with IGROV-1, 36.9 µM (inactive). Also, the GI50 in the experiment on K562 is 72.4 µM (inactive); with LOX IMVI it was 27.4 µM (inactive); in the experiment on OVCAR-4, 46.1 µM (inactive); in the experiment with OVCAR-8, 30.7 µM (inactive); in the experiment with RXF 393, 53.8 µM (inactive); in the experiment with SF-539, 47.8 µM (inactive). The GI50 with SK-MEL-28 is 43.1 µM (inactive); in the experiment with SK-MEL-2, 37.9 µM (inactive); with SK-OV-3, > 100 µM (inactive); in the experiment with SNB-75 it was 33.6 µM (inactive); in the experiment on UACC-62, 19.5 µM (inactive).

`CC(=O)NNc1nc(C)c(C(/C=C/c2ccc(Cl)cc2)=N\N=C(N)N)s1`: the GI50 with ACHN was > 100 µM (inactive); in the experiment on HCT-116 it was > 100 µM (inactive); in the experiment with HCT-15, above 100 µM; in the experiment with HL-60, > 100 µM (inactive); in the experiment with IGROV-1 it was > 100 µM (inactive); in the experiment on K562, > 100 µM (inactive). The GI50 in the experiment on LOX IMVI, with OVCAR-4, in the experiment on OVCAR-8, with RXF 393, with SF-539 and with SK-MEL-28 was > 100 µM (inactive) throughout. Moreover, the GI50 with SK-OV-3, in the experiment with SNB-75 and with UACC-62 was > 100 µM (inactive) throughout.

Take `O=S(=O)(/C=C/c1ccc(Cl)cc1Cl)Cc1ccccc1CS(=O)(=O)/C=C/c1ccc(Cl)cc1Cl`: the GI50 is 33.5 µM (inactive) in the experiment with A498; 63.8 µM (inactive) in the experiment with ACHN; > 100 µM (inactive) with EKVX; 9.59 µM (inactive) in the experiment on HCT-116; 46.2 µM in the experiment on HCT-15; > 100 µM (inactive) with IGROV-1. The GI50 with K562 is 61.1 µM (inactive); with LOX IMVI it was > 100 µM (inactive); in the experiment with OVCAR-4, 11.9 µM (inactive); with OVCAR-8 it was 7.5 µM (inactive); with RXF 393 it was 65.2 µM (inactive); with SF-539 it was > 100 µM (inactive). Besides, the GI50 in the experiment with SK-MEL-28 was > 100 µM (inactive); in the experiment with SK-MEL-2 it was > 100 µM (inactive); with SK-OV-3, > 100 µM (inactive); in the experiment on SNB-75 it was 6.18 µM (inactive); in the experiment on UACC-62, 8.38 µM (inactive).

Regarding `N#CC(C(=O)CCC(=O)Nc1ccc(Cl)cc1)c1ccc(Cl)cc1` (configuration not stated), the GI50 is > 100 µM (inactive) in the experiment on A498; 77.1 µM (inactive) in the experiment with ACHN; > 100 µM (inactive) in the experiment with EKVX; 65.9 µM (inactive) in the experiment with HCT-116; above 100 µM in the experiment with HCT-15; > 100 µM (inactive) in the experiment with HL-60. The GI50 is 89.5 µM (inactive) in the experiment with IGROV-1; 18.9 µM (inactive) with K562; 78.5 µM (inactive) in the experiment with LOX IMVI; > 100 µM (inactive) in the experiment with OVCAR-4; > 100 µM (inactive) in the experiment on OVCAR-8; > 100 µM (inactive) in the experiment with SF-539. For the same compound, the GI50 with SK-MEL-2 was > 100 µM (inactive); in the experiment with SK-OV-3 it was > 100 µM (inactive); in the experiment on UACC-62, 10.7 µM (inactive).

Consider `Cc1ccc(S(=O)(=O)N/N=C/c2oc(-c3ccccc3Cl)c(-c3ccccc3Cl)c2[N+](=O)[O-])cc1`, for which the GI50 in the experiment on A498 is 20.8 µM (inactive); in the experiment on ACHN, 13.9 µM (inactive); in the experiment with EKVX, 31.5 µM (inactive); in the experiment with HCT-116, 6.37 µM (inactive); with HL-60, 8.02 µM (inactive); with IGROV-1, 24.9 µM (inactive). The GI50 with K562 was 12.9 µM (inactive); in the experiment with OVCAR-4, 30 µM (inactive); in the experiment with OVCAR-8 it was 22.3 µM (inactive); with RXF 393 it was 13.8 µM (inactive); in the experiment with SF-539 it was 22.4 µM (inactive); in the experiment with SK-MEL-28, 22.9 µM (inactive). Further, the results for the GI50 in the experiment with SK-MEL-2, with SK-OV-3 and in the experiment with UACC-62 were 25 µM (inactive), 45 µM (inactive) and 17.8 µM (inactive), respectively.

For `CCN(CC)CC(=O)NC1c2ccccc2Oc2c(C)cccc21` (configuration not stated), the GI50 was 32.9 µM (inactive) in the experiment on ACHN; > 100 µM (inactive) in the experiment with EKVX; 95.5 µM (inactive) with HCT-116; above 100 µM with HCT-15; 37.7 µM (inactive) in the experiment on HL-60; > 100 µM (inactive) with IGROV-1. The GI50 in the experiment on K562 is 53.1 µM (inactive); in the experiment on LOX IMVI, > 100 µM (inactive); in the experiment on OVCAR-4, > 100 µM (inactive); in the experiment with OVCAR-8 it was > 100 µM (inactive); in the experiment with RXF 393 it was 38.7 µM (inactive); in the experiment on SF-539 it was > 100 µM (inactive). The GI50 is > 100 µM (inactive) in the experiment with SK-MEL-28, > 100 µM (inactive) with SK-OV-3, 49.5 µM (inactive) in the experiment with SNB-75 and > 100 µM (inactive) with UACC-62.

For the compound `CC(=O)C1CCN(c2ccccc2)C1` (configuration not stated), the GI50 with A498, in the experiment on ACHN, in the experiment on EKVX, in the experiment on HCT-116, in the experiment with HL-60 and in the experiment on IGROV-1 was > 100 µM (inactive) each time. For the same compound, the GI50 in the experiment on K562, with OVCAR-4, in the experiment with OVCAR-8, in the experiment on RXF 393, in the experiment on SF-539 and with SK-MEL-28 was > 100 µM (inactive) throughout. Also, the GI50 with SK-MEL-2, with SK-OV-3, in the experiment on SNB-75 and in the experiment with UACC-62 was > 100 µM (inactive) throughout.

In the case of `N#CC12Cc3ccc4c(c3-c3cccc(c31)CCN2C(=O)c1ccccc1)OCO4` (configuration not stated), the GI50 in the experiment with A498 was 68.4 µM (inactive); with ACHN, 71.8 µM (inactive); in the experiment on EKVX it was > 100 µM (inactive); with HCT-116, > 100 µM (inactive); in the experiment with HCT-15 it was above 100 µM; with HL-60, > 100 µM (inactive). For the same compound, the GI50 in the experiment with IGROV-1, with K562, in the experiment on LOX IMVI, in the experiment with OVCAR-8, in the experiment on RXF 393 and in the experiment with SF-539 was > 100 µM (inactive) throughout. The GI50 is > 100 µM (inactive) with SK-MEL-28, > 100 µM (inactive) with SK-OV-3, 34.7 µM (inactive) in the experiment with SNB-75 and > 100 µM (inactive) in the experiment on UACC-62.

With `O=CC1=CCC2c3[nH]c4ccccc4c3CCN2C1` (configuration not stated), the GI50 in the experiment on ACHN was 219 µM (inactive); in the experiment on EKVX, > 396 µM (inactive); in the experiment on HCT-116, 61.7 µM (inactive); in the experiment on HCT-15, 68.1 µM; with HL-60, 77.6 µM (inactive); in the experiment on IGROV-1, 125 µM (inactive). Moreover, the GI50 in the experiment with K562 was 130 µM (inactive); in the experiment on LOX IMVI, 58.7 µM (inactive); with OVCAR-8, 139 µM (inactive); with RXF 393, 182 µM (inactive); in the experiment with SF-539, 175 µM (inactive); with SK-MEL-28, 90.6 µM (inactive). Also, the GI50 with SK-MEL-2 was 90.8 µM (inactive); in the experiment on SK-OV-3 it was 132 µM (inactive); in the experiment on UACC-62, 93.8 µM (inactive).

For the compound `Clc1ccc(CCn2cncn2)c(Cl)c1`, the GI50 was > 100 µM (inactive) with ACHN; > 100 µM (inactive) in the experiment on EKVX; > 100 µM (inactive) in the experiment with HCT-116; above 100 µM with HCT-15; > 100 µM (inactive) with HL-60; > 100 µM (inactive) in the experiment with IGROV-1. Besides, the GI50 in the experiment with K562, in the experiment on OVCAR-4, in the experiment on OVCAR-8, in the experiment on SF-539, with SK-MEL-28 and in the experiment with SK-OV-3 was > 100 µM (inactive) each time. For the same compound, the GI50 in the experiment with SNB-75 and in the experiment with UACC-62 was > 100 µM (inactive) throughout.

Regarding `O=C1C2C(C(=O)N1c1ccccc1)C1(c3ccccc3)OC2(c2ccccc2)c2ccccc21` (configuration not stated), the GI50 in the experiment on ACHN was > 100 µM (inactive); in the experiment on EKVX, > 100 µM (inactive); with HCT-15, above 100 µM; in the experiment on HL-60, > 100 µM (inactive); with IGROV-1, > 100 µM (inactive); in the experiment on K562 it was > 100 µM (inactive). In addition, the GI50 in the experiment with LOX IMVI, with OVCAR-4, in the experiment on OVCAR-8, in the experiment on RXF 393, with SF-539 and in the experiment on SK-MEL-28 was > 100 µM (inactive) throughout. Moreover, the GI50 was > 100 µM (inactive) in the experiment on SK-MEL-2, > 100 µM (inactive) in the experiment on SK-OV-3, 12.8 µM (inactive) with SNB-75 and > 100 µM (inactive) with UACC-62.

Take `CC#CC(=O)Nc1ccccc1CC(c1c[nH]c2ccccc12)c1c[nH]c2ccccc12`: the GI50 in the experiment on EKVX is 14.6 µM (inactive); in the experiment with HCT-15, 14.3 µM; in the experiment with HL-60, 10.8 µM (inactive); with IGROV-1 it was 16.4 µM (inactive); in the experiment on K562 it was 16.1 µM (inactive); with LOX IMVI it was 15.2 µM (inactive). The GI50 in the experiment on OVCAR-8 was 19.1 µM (inactive); in the experiment with RXF 393, 7.13 µM (inactive); in the experiment on SF-539, 20.4 µM (inactive); with SK-MEL-28 it was 15.7 µM (inactive); with SK-MEL-2, 18.2 µM (inactive); in the experiment on SK-OV-3, 18.8 µM (inactive). The values for the GI50 in the experiment with SNB-75 and in the experiment with UACC-62 were 5.51 µM (inactive) and 13.3 µM (inactive), respectively.

Consider `COC(=O)C1CCC2(C)[C@H](CCC3O[C@]32C)[C@@]1(C)CC(=O)c1ccoc1` (some centres not stated), for which the GI50 is 43 µM (inactive) in the experiment with A498; 34.4 µM (inactive) in the experiment on ACHN; 18.7 µM (inactive) with EKVX; 65.6 µM (inactive) in the experiment on HCT-116; 81.1 µM with HCT-15; 75 µM (inactive) with HL-60. In addition, the GI50 with IGROV-1 is 58.6 µM (inactive); with K562, 46.1 µM (inactive); in the experiment with LOX IMVI, > 100 µM (inactive); in the experiment with OVCAR-4 it was > 100 µM (inactive); in the experiment with OVCAR-8, > 100 µM (inactive); in the experiment on RXF 393, > 100 µM (inactive). For the same compound, the GI50 with SF-539 was > 100 µM (inactive); in the experiment on SK-MEL-28, > 100 µM (inactive); with SK-OV-3, 0.0406 µM (active); in the experiment with UACC-62, 88.5 µM (inactive).
